Experimental data taken from the NIST ThermoML archive (doi:10.1021/acs.jced.6b00542).

Assay: xn = mol fraction of the nth substance listed
Settings: for surface tension liquid-gas: 294.5 K, Pendant drop shape; for speed of sound: 100 kPa, Frequency=3 MHz, Sing-around technique in a fixed-path interferometer; for speed of sound / viscosity / mass density: Liquid; for viscosity / mass density: 102 kPa; for viscosity: Concentric cylinders viscometry; for mass density: Vibrating tube method

CCCCCCCCCCCCCCCCC [heptadecane] + CCCCc1ccccc1
Settings | surface tension liquid-gas [mN/m]
x2 = 0.1662 | 27.6
x2 = 0.3047 | 27.7
x2 = 0.4587 | 28
x2 = 0.6419 | 28.2
x2 = 0.7515 | 28.3
x2 = 0.8742 | 29.2

Settings | mass density [kg/m3] | speed of sound [m/s] | viscosity [mPa·s]
303.15 K, x2 = 0 | 771.02 | 1330.9 | 3.25
303.15 K, x2 = 0.1662 | 777.94 | 1325.3 | 2.73
303.15 K, x2 = 0.3047 | 784.91 | 1321.4 | 2.35
303.15 K, x2 = 0.4587 | 794.08 | 1316.9 | 1.96
303.15 K, x2 = 0.6419 | 808.08 | 1312.4 | 1.56
303.15 K, x2 = 0.7515 | 818.66 | 1311.3 | 1.35
303.15 K, x2 = 0.8742 | 833.23 | 1311 | 1.13
313.15 K, x2 = 0 | 764.16 | 1294.5 | 2.61
313.15 K, x2 = 0.1662 | 771 | 1289 | 2.23
313.15 K, x2 = 0.3047 | 777.87 | 1285 | 1.94
313.15 K, x2 = 0.4587 | 786.92 | 1280.3 | 1.64
313.15 K, x2 = 0.6419 | 800.73 | 1275.9 | 1.32
313.15 K, x2 = 0.7515 | 811.14 | 1274.1 | 1.15
313.15 K, x2 = 0.8742 | 825.49 | 1273.6 | 0.967
323.15 K, x2 = 0 | 757.3 | 1258.8 | 2.14
323.15 K, x2 = 0.1662 | 764.03 | 1253.3 | 1.85
323.15 K, x2 = 0.3047 | 770.84 | 1249.2 | 1.62
323.15 K, x2 = 0.4587 | 779.75 | 1244.5 | 1.39
323.15 K, x2 = 0.6419 | 793.34 | 1239.7 | 1.14
323.15 K, x2 = 0.7515 | 803.6 | 1237.6 | 1
323.15 K, x2 = 0.8742 | 817.71 | 1236.6 | 0.844
333.15 K, x2 = 0 | 750.45 | 1223.8 | 1.79
333.15 K, x2 = 0.1662 | 757.11 | 1218.1 | 1.56
333.15 K, x2 = 0.3047 | 763.79 | 1214 | 1.38
333.15 K, x2 = 0.4587 | 772.56 | 1209.1 | 1.2
333.15 K, x2 = 0.6419 | 785.94 | 1204 | 0.981
333.15 K, x2 = 0.7515 | 796.02 | 1201.6 | 0.865
333.15 K, x2 = 0.8742 | 809.9 | 1200.1 | 0.747
343.15 K, x2 = 0 | 743.7 | – | 1.52
343.15 K, x2 = 0.1662 | 750.12 | – | 1.33
343.15 K, x2 = 0.3047 | 756.65 | – | 1.19
343.15 K, x2 = 0.4587 | 765.4 | – | 1.04
343.15 K, x2 = 0.6419 | 778.47 | – | 0.861
343.15 K, x2 = 0.7515 | 788.4 | – | 0.768
343.15 K, x2 = 0.8742 | 802 | – | 0.671
353.15 K, x2 = 0 | 736.8 | – | 1.3
353.15 K, x2 = 0.1662 | 743.1 | – | 1.16
353.15 K, x2 = 0.3047 | 749.6 | – | 1.04
353.15 K, x2 = 0.4587 | 758.1 | – | 0.906
353.15 K, x2 = 0.6419 | 771 | – | 0.763
353.15 K, x2 = 0.7515 | 780.7 | – | 0.684
353.15 K, x2 = 0.8742 | 794.1 | – | 0.602
363.15 K, x2 = 0 | 729.8 | – | 1.14
363.15 K, x2 = 0.1662 | 736.1 | – | 1.01
363.15 K, x2 = 0.3047 | 742.4 | – | 0.909
363.15 K, x2 = 0.4587 | 750.8 | – | 0.805
363.15 K, x2 = 0.6419 | 763.4 | – | 0.687
363.15 K, x2 = 0.7515 | 773 | – | 0.623
363.15 K, x2 = 0.8742 | 786.1 | – | 0.546
373.15 K, x2 = 0 | 723 | – | 1
373.15 K, x2 = 0.1662 | 729 | – | 0.891
373.15 K, x2 = 0.3047 | 735.2 | – | 0.811
373.15 K, x2 = 0.4587 | 743.5 | – | 0.725
373.15 K, x2 = 0.6419 | 755.8 | – | 0.628
373.15 K, x2 = 0.7515 | 765.2 | – | 0.567
373.15 K, x2 = 0.8742 | 778.1 | – | 0.499
